Active and inactive are the calls of the source.
Tests used:
[1] = tested on: Streptococcus sp. 'group A'; test: Streptococcus pyogenes SK(-)GAS viability under kanamycin – luminescence, BacTiterGlo, confirmation, counter-screen for streptokinase expression inhibitor project, dose response (AID 1900); format: functional, organism-based
[2] = target: T1, Sentrin-specific protease 8 (Homo sapiens, UniProt Q96LD8); format: functional;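 further: luminescence read-out of SENP8 inhibition, dose-response confirmation following an ultra-high-throughput screen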
T1 sequence (Q96LD8 whole entry): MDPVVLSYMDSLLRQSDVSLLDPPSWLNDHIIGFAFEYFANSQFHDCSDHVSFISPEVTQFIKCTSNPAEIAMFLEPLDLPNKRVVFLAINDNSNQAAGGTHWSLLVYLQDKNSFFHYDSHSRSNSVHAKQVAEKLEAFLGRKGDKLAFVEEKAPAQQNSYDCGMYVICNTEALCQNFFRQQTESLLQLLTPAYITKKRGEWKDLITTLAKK

[3] = target: T2, Sentrin-specific protease 6 (Homo sapiens, UniProt Q9GZR1); format: functional;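 further: Luminescence-based dose-response confirmatory assay of SENP6 inhibition, following up an ultra-high-throughput screen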
T2 sequence (Q9GZR1 whole entry): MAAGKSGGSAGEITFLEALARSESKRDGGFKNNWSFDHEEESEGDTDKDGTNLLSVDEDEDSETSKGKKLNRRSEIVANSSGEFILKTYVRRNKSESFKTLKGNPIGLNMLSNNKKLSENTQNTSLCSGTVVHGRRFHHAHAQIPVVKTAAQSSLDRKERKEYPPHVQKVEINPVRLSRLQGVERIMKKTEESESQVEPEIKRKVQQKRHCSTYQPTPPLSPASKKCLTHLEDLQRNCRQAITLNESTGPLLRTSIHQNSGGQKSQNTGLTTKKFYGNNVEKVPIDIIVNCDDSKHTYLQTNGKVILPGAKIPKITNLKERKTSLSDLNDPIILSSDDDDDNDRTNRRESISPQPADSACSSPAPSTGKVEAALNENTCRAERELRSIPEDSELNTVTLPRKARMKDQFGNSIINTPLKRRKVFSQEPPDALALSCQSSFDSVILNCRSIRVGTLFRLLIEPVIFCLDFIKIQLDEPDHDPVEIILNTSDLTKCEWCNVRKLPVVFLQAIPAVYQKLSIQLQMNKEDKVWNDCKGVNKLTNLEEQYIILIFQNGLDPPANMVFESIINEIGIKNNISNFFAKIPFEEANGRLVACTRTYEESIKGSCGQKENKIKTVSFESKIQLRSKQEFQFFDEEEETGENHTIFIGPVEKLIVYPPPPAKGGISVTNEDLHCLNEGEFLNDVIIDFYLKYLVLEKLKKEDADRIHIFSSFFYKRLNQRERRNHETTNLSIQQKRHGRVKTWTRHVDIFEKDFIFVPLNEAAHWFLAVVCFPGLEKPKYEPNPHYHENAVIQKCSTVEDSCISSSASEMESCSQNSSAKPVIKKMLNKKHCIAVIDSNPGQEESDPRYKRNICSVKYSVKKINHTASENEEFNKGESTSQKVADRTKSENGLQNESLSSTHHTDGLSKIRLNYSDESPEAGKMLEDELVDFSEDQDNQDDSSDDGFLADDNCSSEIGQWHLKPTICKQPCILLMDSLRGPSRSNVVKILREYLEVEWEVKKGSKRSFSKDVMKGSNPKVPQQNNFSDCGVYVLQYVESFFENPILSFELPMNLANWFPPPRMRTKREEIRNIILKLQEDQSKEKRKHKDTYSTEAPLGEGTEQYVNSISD

Melanocortin receptor 4 = Melanocortin receptor 4 (Homo sapiens, UniProt P32245); format: functional, cell-based;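 further: Cell-based assay with luminescence read-out, confirmatory dose-response testing for agonist activity of biased ligands at MC4R; human U2OS cells with tagged receptor and beta-arrestin; potency of agonists that increase receptor coupling to beta-arrestin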
Melanocortin receptor 4, sequence (P32245 whole entry): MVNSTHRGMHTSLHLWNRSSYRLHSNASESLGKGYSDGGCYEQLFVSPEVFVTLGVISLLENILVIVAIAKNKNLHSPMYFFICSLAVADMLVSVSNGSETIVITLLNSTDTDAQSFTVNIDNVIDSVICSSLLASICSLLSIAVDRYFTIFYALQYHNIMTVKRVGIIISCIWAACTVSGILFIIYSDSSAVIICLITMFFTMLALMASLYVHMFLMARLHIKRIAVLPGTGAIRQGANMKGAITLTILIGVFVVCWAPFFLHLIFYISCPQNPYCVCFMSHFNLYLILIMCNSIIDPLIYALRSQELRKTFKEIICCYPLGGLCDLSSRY

[4] = target: T3, Calpain-2 catalytic subunit (Sus scrofa, UniProt P43367); test: m-calpain protease blockers, concentration series – biochemical, fluorogenic peptide substrate, dose response (AID 1420); format: functional
T3 sequence (P43367 whole entry): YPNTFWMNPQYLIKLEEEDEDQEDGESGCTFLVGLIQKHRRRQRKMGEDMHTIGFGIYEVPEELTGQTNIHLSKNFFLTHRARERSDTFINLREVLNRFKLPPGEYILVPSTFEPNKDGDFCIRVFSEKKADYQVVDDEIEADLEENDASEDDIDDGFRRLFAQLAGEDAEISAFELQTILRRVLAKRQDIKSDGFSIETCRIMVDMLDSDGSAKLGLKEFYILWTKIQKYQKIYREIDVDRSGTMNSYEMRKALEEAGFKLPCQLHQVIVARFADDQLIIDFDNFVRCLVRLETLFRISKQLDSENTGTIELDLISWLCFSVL

[5] = target: T4, Sentrin-specific protease 7 (Homo sapiens, UniProt Q9BQF6); format: functional;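 further: Luminescence-based dose-response confirmation of ultra-high-throughput screening hits, measuring inhibition of SENP7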
T4 sequence (Q9BQF6 whole entry): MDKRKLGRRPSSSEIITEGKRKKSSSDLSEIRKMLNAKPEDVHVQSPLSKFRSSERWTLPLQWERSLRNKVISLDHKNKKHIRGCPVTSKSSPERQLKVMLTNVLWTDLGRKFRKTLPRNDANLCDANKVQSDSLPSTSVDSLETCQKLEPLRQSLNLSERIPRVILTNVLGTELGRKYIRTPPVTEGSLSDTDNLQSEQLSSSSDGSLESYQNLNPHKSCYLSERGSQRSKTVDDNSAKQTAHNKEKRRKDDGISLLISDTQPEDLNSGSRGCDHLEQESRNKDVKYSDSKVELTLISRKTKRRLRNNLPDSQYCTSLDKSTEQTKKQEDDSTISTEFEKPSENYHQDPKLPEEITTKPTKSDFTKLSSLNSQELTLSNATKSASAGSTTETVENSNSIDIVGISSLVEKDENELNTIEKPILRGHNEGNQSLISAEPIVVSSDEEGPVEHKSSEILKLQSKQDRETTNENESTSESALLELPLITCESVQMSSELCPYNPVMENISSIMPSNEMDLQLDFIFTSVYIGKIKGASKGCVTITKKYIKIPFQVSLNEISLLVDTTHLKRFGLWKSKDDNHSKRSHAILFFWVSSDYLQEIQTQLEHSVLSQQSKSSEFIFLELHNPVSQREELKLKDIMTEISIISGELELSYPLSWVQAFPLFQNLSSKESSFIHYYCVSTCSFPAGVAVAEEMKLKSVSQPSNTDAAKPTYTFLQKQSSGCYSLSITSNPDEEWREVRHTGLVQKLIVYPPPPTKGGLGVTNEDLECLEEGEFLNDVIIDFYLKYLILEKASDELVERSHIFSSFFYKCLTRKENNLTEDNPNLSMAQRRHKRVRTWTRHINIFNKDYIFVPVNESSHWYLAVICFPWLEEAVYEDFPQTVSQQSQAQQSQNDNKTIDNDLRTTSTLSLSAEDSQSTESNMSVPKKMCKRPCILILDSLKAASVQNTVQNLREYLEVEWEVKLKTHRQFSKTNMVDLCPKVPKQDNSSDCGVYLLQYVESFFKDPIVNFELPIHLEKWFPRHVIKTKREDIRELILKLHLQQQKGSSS

Caspase-3 = target: T5, Caspase-3 (Homo sapiens, UniProt P42574); format: functional;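 further: Dose-response selectivity test against caspase-3 for candidate inhibitors of sentrin-specific proteases (SENPs)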
T5 sequence (P42574 whole entry): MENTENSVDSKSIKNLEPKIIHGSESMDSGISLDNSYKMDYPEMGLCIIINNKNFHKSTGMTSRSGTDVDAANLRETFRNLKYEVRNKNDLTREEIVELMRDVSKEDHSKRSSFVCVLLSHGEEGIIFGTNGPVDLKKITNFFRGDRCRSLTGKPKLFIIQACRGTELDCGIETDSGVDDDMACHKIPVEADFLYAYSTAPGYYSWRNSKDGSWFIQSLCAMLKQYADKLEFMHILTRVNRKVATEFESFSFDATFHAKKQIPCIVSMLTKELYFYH

Streptococcus = test: GAS UMAA2166 growth inhibition – luminescence, BacTiterGlo, counter-screen for streptokinase expression inhibitor project, dose response (AID 1915); format: functional, organism-based;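 further: potency for reduction of bacterial viability or growth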
[6] = reduction of Shn3 3'UTR-driven luciferase in osteoblasts – cell-based, Clone20 osteoblasts, firefly luciferase, cherry-picked, dose response (AID 624132); format: functional;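 further: firefly luciferase luminescence from reporter carrying the Shn3 3'UTR in osteoblasts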
[7] = loss of viability in HepG2 cells – cell-based, CellTiter-Glo, cherry-picked, cytotoxicity control for Shn3 inhibitor project, dose response (AID 624134); format: functional
[8] = target: T6, High affinity choline transporter 1 (Homo sapiens, UniProt Q9GZV3); test: human choline transporter blockers, potency – cell-based, 5-point CRC, membrane potential dye, dose response (AID 504840); format: functional
T6 sequence (Q9GZV3 whole entry): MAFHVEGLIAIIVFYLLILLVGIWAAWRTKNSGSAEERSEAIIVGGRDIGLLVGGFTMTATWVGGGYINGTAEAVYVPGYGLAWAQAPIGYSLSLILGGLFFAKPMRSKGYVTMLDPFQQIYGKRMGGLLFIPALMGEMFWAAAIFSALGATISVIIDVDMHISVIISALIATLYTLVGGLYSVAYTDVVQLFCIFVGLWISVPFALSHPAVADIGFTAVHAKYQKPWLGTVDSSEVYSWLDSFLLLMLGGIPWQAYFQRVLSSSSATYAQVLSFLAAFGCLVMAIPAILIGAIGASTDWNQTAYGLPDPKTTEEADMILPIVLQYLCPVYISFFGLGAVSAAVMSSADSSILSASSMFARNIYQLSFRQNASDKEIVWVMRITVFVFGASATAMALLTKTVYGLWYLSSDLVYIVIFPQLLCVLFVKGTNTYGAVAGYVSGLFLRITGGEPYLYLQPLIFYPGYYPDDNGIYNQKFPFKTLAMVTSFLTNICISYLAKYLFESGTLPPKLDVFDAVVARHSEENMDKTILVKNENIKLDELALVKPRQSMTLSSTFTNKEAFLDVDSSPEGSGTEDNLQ

[9] = Luminescence Cell-Based Dose Retest to Confirm Inhibitors of Cancer Stem Cells. [Related pubchem assays (depositor defined):AID2717, AID2721]; format: functional; details: Homo sapiens
[10] = target: T7, Carboxy-terminal domain RNA polymerase II polypeptide A small phosphatase 1 (Homo sapiens, UniProt Q9GZU7); test: CTDSP1 inhibitors, concentration-response, biochemical, absorbance readout, ultra-high-throughput screen actives (AID 540297); format: functional
T7 sequence (Q9GZU7 whole entry): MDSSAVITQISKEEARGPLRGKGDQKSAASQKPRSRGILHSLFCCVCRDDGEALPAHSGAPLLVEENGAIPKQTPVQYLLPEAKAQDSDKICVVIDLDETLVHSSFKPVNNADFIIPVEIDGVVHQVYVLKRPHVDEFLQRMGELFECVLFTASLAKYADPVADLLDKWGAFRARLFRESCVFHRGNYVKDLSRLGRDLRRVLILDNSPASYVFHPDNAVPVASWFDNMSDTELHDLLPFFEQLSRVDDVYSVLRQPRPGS

Beta-galactosidase = Beta-galactosidase (Escherichia coli, UniProt Q8VNN2); test: detection-enzyme interference by beta-gal modulators – biochemical, E. coli enzyme, set 3, artefact control for CCR6 antagonist project, dose response (AID 504712); format: functional
Beta-galactosidase, sequence (Q8VNN2 whole entry, canonical isoform): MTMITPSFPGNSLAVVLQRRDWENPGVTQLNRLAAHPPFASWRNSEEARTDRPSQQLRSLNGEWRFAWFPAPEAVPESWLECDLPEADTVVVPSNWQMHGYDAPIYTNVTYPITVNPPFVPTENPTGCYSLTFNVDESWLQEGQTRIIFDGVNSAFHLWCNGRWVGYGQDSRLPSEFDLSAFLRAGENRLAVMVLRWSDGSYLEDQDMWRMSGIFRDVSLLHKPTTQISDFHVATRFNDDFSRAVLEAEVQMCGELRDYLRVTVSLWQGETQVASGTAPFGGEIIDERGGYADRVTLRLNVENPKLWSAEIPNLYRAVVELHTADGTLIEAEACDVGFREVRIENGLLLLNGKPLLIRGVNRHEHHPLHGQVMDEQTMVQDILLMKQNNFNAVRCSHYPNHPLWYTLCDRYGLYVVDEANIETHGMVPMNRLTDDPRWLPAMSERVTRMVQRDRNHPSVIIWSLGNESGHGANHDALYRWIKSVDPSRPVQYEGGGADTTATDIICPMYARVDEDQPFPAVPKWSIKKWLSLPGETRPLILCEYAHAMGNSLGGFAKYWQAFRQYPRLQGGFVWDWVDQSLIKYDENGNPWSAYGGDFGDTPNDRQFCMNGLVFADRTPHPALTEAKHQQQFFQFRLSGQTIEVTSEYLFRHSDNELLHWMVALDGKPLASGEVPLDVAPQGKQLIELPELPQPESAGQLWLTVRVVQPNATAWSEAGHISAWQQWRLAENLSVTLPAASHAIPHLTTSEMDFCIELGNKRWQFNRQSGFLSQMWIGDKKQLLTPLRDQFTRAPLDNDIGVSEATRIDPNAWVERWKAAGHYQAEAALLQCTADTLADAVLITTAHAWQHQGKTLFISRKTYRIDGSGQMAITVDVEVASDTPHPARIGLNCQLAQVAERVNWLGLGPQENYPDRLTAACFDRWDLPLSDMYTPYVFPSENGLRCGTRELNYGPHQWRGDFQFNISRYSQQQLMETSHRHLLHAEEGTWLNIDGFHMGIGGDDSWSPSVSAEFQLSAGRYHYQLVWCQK

[11] = target: Casein kinase I isoform alpha (Homo sapiens, UniProt P48729); format: functional
Casein kinase I isoform alpha, sequence (P48729 whole entry, canonical isoform): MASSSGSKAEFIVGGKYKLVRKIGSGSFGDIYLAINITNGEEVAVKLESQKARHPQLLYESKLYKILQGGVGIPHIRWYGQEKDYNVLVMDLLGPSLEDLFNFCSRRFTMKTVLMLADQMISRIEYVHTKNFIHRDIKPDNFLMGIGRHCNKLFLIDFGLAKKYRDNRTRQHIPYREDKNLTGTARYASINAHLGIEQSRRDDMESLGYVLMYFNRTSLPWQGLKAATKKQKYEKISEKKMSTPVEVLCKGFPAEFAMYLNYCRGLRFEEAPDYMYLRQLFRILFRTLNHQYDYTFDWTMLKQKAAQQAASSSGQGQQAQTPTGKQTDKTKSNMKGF

COc1cc(O)c(CC=C(C)C)c(O)c1C(=O)CCc1ccc(O)cc1 [DIHYDROXANTHOHUMOL]
EC50 [1]: 2.79 µM (active) | IC50 [2]: 13.3 µM (active) | IC50 [3]: 10 µM (active) | EC50 (Melanocortin receptor 4): > 89.2 µM (inactive) | IC50 [4]: 5 µM (not active) | IC50 [5]: 7.82 µM (active) | IC50 (Caspase-3): > 100 µM (inactive) | EC50 (Streptococcus): 3.05 µM (active)

Cc1ccccc1NC(=O)CSc1nc2ccccc2c(=O)n1C
AC50 [6]: 7.64 µM (active) | AC50 [7]: 59.6 µM (active)

CC1(C)CC(=O)C=C(Nc2cccc(Cl)c2Cl)C1
IC50 [8]: 3.16 µM (active)

CC(C)C[C@@H](CO)N(Cc1ccccc1)S(=O)(=O)N(Cc1ccccc1)[C@H](CO)CC(C)C
AC50 [6]: 10.1 µM (active) | AC50 [7]: 21 µM (active) | AC50 [9]: 5.76 µM (active)

CCOc1ccc(C=NNc2ccc(S(=O)(=O)Nc3ccccc3C(=O)O)cc2[N+](=O)[O-])cc1OC
IC50 [10]: 3.51 µM (active) | IC50 (Beta-galactosidase): > 66.6 µM (inactive)

N#Cc1cnc(Cl)nc1N
Ki [11]: 100 µM (active)
